Patent US7332495B2 (priority 2002, dated 2008)
Like-named read-outs stand apart in the source and are kept apart here.

What was measured:
[1] = test system: Kunming mice; assay: Mice writhing model (acetic acid); assay type: in vivo; conditions: for inhibition in vivo at 20 mg/kg: ip, i.p. 20 mg/Kg, acetic acid 0.7% i.p. after 30 minutes, writhes in 5 minutes, read-out: Analgesia (inhibition ratio of writhing); for Writhing (K i): 20 mg/kg, Table 5 summary
Procedure: (§1) Kunming mice were used, with a male-female ratio of 50-50%. The test compound is administered i.p. (20 mg/Kg body weight) to the test groups, and physiological saline is administered P.O. (20 ml/Kg body weight) to the control group. After 30 minutes, acetic acid (0.7%, […] i.p.) was injected and the number of writhes was observed during a 5-minute period after acetic acid administration. The inhibition ratio of the writhing threshold was calculated. The alternating current tube is used to record the spontaneous activities for measuring sedation.
(§2) Two species of animals (mice and rats) and four types of pain testing models (i.p. 0.7% acetic acid, s.c. 5% formalin, hot plate 55° C., focused radiant heat) were used.

[2] = test system: rat; assay: Rat tail flick model (focused radiant heat); assay type: in vivo; conditions: for change in vivo at 20 mg/kg: Rattus norvegicus, po, read-out: increase (%) of tail flick time; for change in vivo at 20 mg/kg / After (s) tail flick time: orally 20 mg/kg; for After (s) tail flick time: 30-45 minutes after administration; for Increase (tail flick) (%): 20 mg/kg, Table 5 summary
Procedure: A 8.75 mm-projecting lamp (12 v, 50 w) was used to give out focused radiant heat. The terminal 3 cm of the tail is exposed to the heat. The intensity of the focused radiant heat is regulated by a transformer to ensure that the time required to elicit a tail flick response is within 3-5 seconds. The rat's pain threshold is pre-tested for 2-3 times; and only animals with stable reactions were used in the pharmaceutical test. The test substance is taken orally 20 mg/kg. The number of rats whose increase in time for eliciting a tail flick response is by 100% or more at the peak of the drug action (30-45 minutes after administration) is used to calculate analgesic effect.
as §2

[3] = test system: rat; assay: animal or person; conditions: for responders at 20 mg/kg: ip; for Increase (hot plate) (%): 20 mg/kg, Table 5 summary
Procedure: Using 55° C. hot plate pain threshold detector (available from Ninghai Baishi Electronic Medical Instrument Co., Zheijiang, China) the threshold change before and after administration of a pharmaceutical composition of the present invention is tested. […] hind paw was scrubbed with alcohol cotton ball before the experiment. The regular pain threshold was tested twice for each rat, the induced hind paw licking time being recorded as the pain threshold. Measurements were made at 20-30 minute intervals. Only rats with stable pain reaction were used in the pharmaceutical test.
as §2

[4] = test system: Kunming mice; assay: Sedation: spontaneous activities recorded with alternating current tube; assay type: in vivo; conditions: for inhibition in vivo at 20 mg/kg: Mus musculus, ip, i.p. 20 mg/Kg, spontaneous activities; for Sedation (writhing model): 20 mg/kg, Table 5 summary
Procedure: as §1, with “The test compound is administered i.p. (20 mg/Kg body weight) to the test groups, and physiological saline is administered P.O. (20 ml/Kg body weight) to the control group.” left out

[5] = Summary of all three algogenic models; assay type: in vivo; conditions: in words
Excerpt: All the compounds mentioned above have profound for further value development.

[6] = test system: rat; assay: Rat tail flick model (focused radiant heat); assay type: in vivo; conditions: po, read-out: Analgesia ED50
[7] = Rattus norvegicus, read-out: Analgesic ratio (Increase by 100%)
[8] = Rattus norvegicus, read-out: Analgesic ratio (More than 60 seconds)

COc1ccc(CN2CCN(CC(=O)c3ccccc3)CC2)cc1 [IV-10, N^1-(4-methoxybenzyl)-N^4-phenacyl piperazine]
inhibition in vivo at 20 mg/kg ([1]; Mus musculus): 100% | change in vivo at 20 mg/kg [2]: 9.4% | After (s) tail flick time [2]: 8.81 s | responders at 20 mg/kg [3, 7]: 90% | responders at 20 mg/kg [3, 8]: 70% | inhibition in vivo at 20 mg/kg [4]: 99%

O=C(CN1CCN(CCc2ccccc2)CC1)c1ccccc1 [IV-14, N^1-phenethyl-N^4-phenacyl piperazine]
Analgesic effect on all three algogenic models [5]: powerful analgesic effects | Sedative effect on all three algogenic models [5]: rather significant sedative effect | Writhing (K i) [1]: 94 | inhibition in vivo at 20 mg/kg ([1]; Mus musculus): 94% | Increase (tail flick) (%) [2]: 37.9% | change in vivo at 20 mg/kg [2]: 37.9% | After (s) tail flick time [2]: 10.62 s | Increase (hot plate) (%) [3]: 100% | responders at 20 mg/kg [3, 7]: 100% | responders at 20 mg/kg [3, 8]: 70% | Sedation (writhing model) [4]: 92 | inhibition in vivo at 20 mg/kg [4]: 92%

O=C(CN1CCN(Cc2ccc3c(c2)OCO3)CC1)c1ccccc1 [IV-19, N^1-(3,4-methylenedioxybenzyl)-N^4-phenacyl piperazine]
inhibition in vivo at 20 mg/kg ([1]; Mus musculus): 97% | change in vivo at 20 mg/kg [2]: 6.7% | After (s) tail flick time [2]: 8.58 s | responders at 20 mg/kg [3, 7]: 70% | responders at 20 mg/kg [3, 8]: 50% | inhibition in vivo at 20 mg/kg [4]: 93%

CC(=O)Nc1ccc(CN2CCN(CC(=O)c3ccccc3)CC2)cc1 [IV-21, N^1-(4-acetamidobenzyl)-N^4-phenacyl piperazine]
Writhing (K i) [1]: 100 | inhibition in vivo at 20 mg/kg ([1]; Mus musculus): 100% | Increase (tail flick) (%) [2]: 28% | change in vivo at 20 mg/kg [2]: 28% | After (s) tail flick time [2]: 9.72 s | Increase (hot plate) (%) [3]: 100% | responders at 20 mg/kg [3, 7]: 100% | responders at 20 mg/kg [3, 8]: 50% | Sedation (writhing model) [4]: 92 | inhibition in vivo at 20 mg/kg [4]: 92%

COc1cccc(CN2CCN(CC(=O)c3ccccc3)CC2)c1 [IV-25, N^1-(3-methoxybenzyl)-N^4-phenacyl piperazine]
inhibition in vivo at 20 mg/kg ([1]; Mus musculus): 100% | change in vivo at 20 mg/kg [2]: 12% | After (s) tail flick time [2]: 8.37 s | responders at 20 mg/kg [3, 7]: 40% | responders at 20 mg/kg [3, 8]: 10% | inhibition in vivo at 20 mg/kg [4]: 88%

Cc1ccc(C(=O)CN2CCN(C(C)c3ccc([N+](=O)[O-])cc3)CC2)cc1 (stereo not shown) [IV-27, N^1-[1-(4-nitrophenyl)ethyl]-N^4-(4-methylphenacyl)piperazine]
inhibition in vivo at 20 mg/kg ([1]; Mus musculus): 57% | change in vivo at 20 mg/kg [2]: 9.2% | After (s) tail flick time [2]: 9.37 s | responders at 20 mg/kg [3, 7]: 20% | responders at 20 mg/kg [3, 8]: 0% | Excitement ([3]; i.p. 20 mg/Kg): no | Sedation ([3]; i.p. 20 mg/Kg, grade symbols, key not given): no | inhibition in vivo at 20 mg/kg [4]: 74%

CC(c1ccccc1)N1CCN(CC(=O)c2ccccc2)CC1 (stereo not shown) [IV-37, N^1-(1-phenylethyl)-N^4-phenacyl piperazine]
inhibition in vivo at 20 mg/kg ([1]; Mus musculus): 100% | change in vivo at 20 mg/kg [2]: 25% | After (s) tail flick time [2]: 10.54 s | responders at 20 mg/kg [3, 7]: 100% | responders at 20 mg/kg [3, 8]: 100% | inhibition in vivo at 20 mg/kg [4]: 90.1%

Cc1ccc(C(=O)CN2CCN(C(C)c3ccccc3)CC2)cc1 (stereo not shown) [IV-40, N^1-(1-phenylethyl)-N^4-(4-methylphenacyl)piperazine]
change in vivo at 20 mg/kg [2]: 8% | After (s) tail flick time [2]: 7.88 s | responders at 20 mg/kg [3, 7]: 10% | responders at 20 mg/kg [3, 8]: 10%

CC(=O)Nc1ccc(O)cc1 [Paracetamol, reference compound]
ED50 ([1]; Mus musculus, po, Mice, Acetic acid Writhing, read-out: Analgesia ED50): 132 mg/kg | ED50 [6]: > 5000 mg/kg | ED50 ([3]; Rattus norvegicus, po, read-out: Analgesia ED50): 4320 mg/kg
